Data published in PubChem BioAssay AID493117 (Broad Institute, 2011).
Inconclusive results are not listed. Activity calls are given as the source filed them.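 Rule for the calls: active = every test run gives a fitted half-maximal dose no higher than ten times the top tested dose, with signal falling; inconclusive = runs disagree, or a flat mid-level drop or poor fit; inactive = every test run inactive.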

These compounds were tested against Autoinducer 2-binding periplasmic protein LuxP (Vibrio harveyi) + Autoinducer 2 sensor kinase/phosphatase LuxQ (Vibrio harveyi) (UniProt P54300+P54302) (assay: inhibitors of AI-2-induced luminescence in V. harveyi MM32, dose response, mechanism study for V. harveyi quorum sensing inhibitors, strain MM32 LuxS-null, dry powder, set 3 (AID 493117)). Conditions: AI-2 luminescence, 5 h.
Sequence of Autoinducer 2-binding periplasmic protein LuxP (Vibrio harveyi) + Autoinducer 2 sensor kinase/phosphatase LuxQ (Vibrio harveyi) (P54300 whole entry, looked up): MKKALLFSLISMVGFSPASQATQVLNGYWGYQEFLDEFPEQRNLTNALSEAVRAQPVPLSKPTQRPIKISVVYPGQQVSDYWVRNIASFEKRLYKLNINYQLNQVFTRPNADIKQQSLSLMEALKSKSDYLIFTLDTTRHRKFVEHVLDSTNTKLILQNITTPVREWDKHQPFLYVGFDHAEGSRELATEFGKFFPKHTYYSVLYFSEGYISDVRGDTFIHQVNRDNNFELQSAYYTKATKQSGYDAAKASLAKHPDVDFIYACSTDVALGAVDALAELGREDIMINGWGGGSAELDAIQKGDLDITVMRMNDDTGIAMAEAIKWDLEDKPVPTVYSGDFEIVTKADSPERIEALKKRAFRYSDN
Sequence of Autoinducer 2-binding periplasmic protein LuxP (Vibrio harveyi) + Autoinducer 2 sensor kinase/phosphatase LuxQ (Vibrio harveyi) (P54302 whole entry, looked up): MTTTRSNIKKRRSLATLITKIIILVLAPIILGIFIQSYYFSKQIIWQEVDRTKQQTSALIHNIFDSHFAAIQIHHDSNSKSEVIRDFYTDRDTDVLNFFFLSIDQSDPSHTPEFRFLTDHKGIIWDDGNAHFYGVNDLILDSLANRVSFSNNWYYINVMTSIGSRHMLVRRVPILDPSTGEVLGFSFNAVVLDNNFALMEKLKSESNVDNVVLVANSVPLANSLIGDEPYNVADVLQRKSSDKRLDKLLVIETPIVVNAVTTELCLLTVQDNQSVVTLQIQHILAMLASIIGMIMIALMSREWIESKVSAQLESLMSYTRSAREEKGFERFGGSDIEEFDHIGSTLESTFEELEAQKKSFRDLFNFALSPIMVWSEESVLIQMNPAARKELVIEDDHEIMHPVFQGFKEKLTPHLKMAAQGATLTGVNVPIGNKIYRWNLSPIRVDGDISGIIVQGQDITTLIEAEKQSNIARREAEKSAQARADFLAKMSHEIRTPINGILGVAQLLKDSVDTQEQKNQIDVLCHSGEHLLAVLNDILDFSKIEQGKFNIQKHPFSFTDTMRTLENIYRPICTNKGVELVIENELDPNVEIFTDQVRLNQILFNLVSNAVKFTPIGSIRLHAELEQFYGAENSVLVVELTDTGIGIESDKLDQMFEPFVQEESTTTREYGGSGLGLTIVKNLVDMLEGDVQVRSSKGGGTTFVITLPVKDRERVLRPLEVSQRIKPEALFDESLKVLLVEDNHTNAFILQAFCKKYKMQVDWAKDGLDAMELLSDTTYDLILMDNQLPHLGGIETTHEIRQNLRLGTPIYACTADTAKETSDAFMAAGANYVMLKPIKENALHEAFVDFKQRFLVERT

| Structure (SMILES) | AC50 |
| --- | --- |
| O=C1C=C/C(=C/Br)O1 | 3.45 µM |
| Cc1noc(C)c1S(=O)(=O)Nc1ccc2c(c1)C(=O)N([C@@H](C)CO)C[C@@H](C)[C@@H](CN(C)Cc1ccc(Oc3ccccc3)cc1)O2 | 18.4 µM |
| C=Cn1c(C(=O)O)ccc1-c1ccc(OC)cc1 | 7.08 µM |
| C=Cn1c(C(=O)O)ccc1-c1ccc(CC)cc1 | 2.32 µM |
| C=Cn1c(C(=O)O)ccc1-c1ccc(Cl)cc1 | 4.46 µM |
| C[C@@H]1CN([C@H](C)CO)C(=O)c2ccccc2-c2ccccc2CO[C@@H]1CN(C)Cc1ccc(Oc2ccccc2)cc1 | 11.3 µM |

Further lines, results first:

| AC50 | Structure (SMILES) |
| --- | --- |
| 2.42 µM | Cn1cnc(S(=O)(=O)Nc2ccc(OC(F)(F)F)cc2)c1 |
| 3.61 µM | CCc1ccc(-c2ccc(C(=O)O)n2C)cc1 |
| 0.591 µM | O=S(=O)(Nc1cccnc1)c1ccc(Oc2ccccc2)cc1 |
| 1.35 µM | O=S(=O)(Nc1ccccn1)c1ccc(Oc2ccccc2)cc1 |

Same assay, conditions: AI-2 luminescence, 5 h, at 16 µM (top of the series)

| Structure (SMILES) | activity change, negative = inhibition |
| --- | --- |
| C=Cn1c(C(=O)O)ccc1-c1cccs1 | inactive |
| CCc1ccc(-c2ccc(C(=O)O)n2CC)cc1 | inactive |
| C[C@H](CO)N1C[C@H](C)[C@H](CN(C)Cc2ccc(C(=O)O)cc2)Oc2ncc(-c3ccc(C(=O)N(C)C)cc3)cc2C1=O | inactive |

The next lines start with the values.

| activity change, negative = inhibition | Structure (SMILES) |
| --- | --- |
| inactive | CN(C)C(=O)c1ccccc1NS(=O)(=O)c1cn(C)cn1 |
| inactive | Cn1cnc(S(=O)(=O)Nc2ccccc2Cl)c1 |
| inactive | Cc1ccccc1NS(=O)(=O)c1cn(C)cn1 |
| inactive | COc1ccccc1NS(=O)(=O)c1cn(C)cn1 |
| inactive | O=S(=O)(Nc1ccccn1)c1ccccc1 |
| inactive | CC(=O)Nc1ccccc1NS(=O)(=O)c1cn(C)cn1 |
| inactive | Cn1cnc(S(=O)(=O)Nc2ccccc2F)c1 |
